From patent publication US9662372B2 (priority 2013, dated 2017)

system: C. difficile ATCC 9689; test: not given; format: cell-based, Clostridium difficile; conditions: not given

Compound | Toxin [ng/mL] | Toxin induction (rank, in words) | Average dye reduction rate of CHO-k1 in the presence of C. difficile supernatant | Corrected dye reduction rate
2,3-Butanone | <0.122 | – | – | –
CC(O)C(N)=O (racemic) [D,L-Lactamide] | 2859 | – | – | –
NC(=O)CCCCC1CCSS1 (racemic) [D,L-Lipoamide] | <0.122 | – | – | –
NCCO [2-Aminoethanol] | 173 | – | – | –
Nc1ncnc2nc[nH]c12 [Adenine] | – | strongest toxin inducer | – | –
Nc1ccn([C@@H]2O[C@@H]3COP(=O)(O)O[C@H]3[C@H]2O)c(=O)n1 [Cytidine 3′,5′-Cyclic Monophosphate] | 321 | – | – | –
O=C[C@H](O)[C@@H](O)[C@H](O)[C@H](O)CO [D-glucose] | – | – | 57.19 | 54.6
NO [Hydroxylamine] | 334 | – | – | –
CS(=O)(=O)CC[C@H](N)C(=O)O [L-Methionine Sulfone] | <0.122 | – | – | –
O=C(O)[C@@H]1CCCN1 [L-Proline] | – | highest toxin inducer in the amino acid category | – | –

system: C. difficile ATCC 9689; test: Bacterial mass in wells of PM panels (OD 750 nm); format: cell-based, Clostridium difficile; conditions: OD difference with vs without C. difficile, 72 h; carbon source (PM01/PM02)

Compound | C. difficile Mass
2,3-Butanone | 0.0572 OD (750 nm)
NCCO [2-Aminoethanol] | 0.0853 OD (750 nm)
OC[C@H]1O[C@@H](Oc2ccc(O)cc2)[C@H](O)[C@@H](O)[C@@H]1O [Arbutin] | 0.128 OD (750 nm)
O=C(O)CC(Br)C(=O)O (stereo not shown) [Bromosuccinic Acid] | 0.0335 OD (750 nm)
CCCCCCCCCC(=O)O [Capric acid] | 0.014 OD (750 nm)
CCCCCC(=O)O [Caproic acid] | 0.0568 OD (750 nm)
C[C@@H](N)C(=O)O [D-Alanine] | 0.1233 OD (750 nm)
N[C@H](CC(=O)O)C(=O)O [D-Aspartic acid] | 0.0269 OD (750 nm)
O=C(CO)[C@@H](O)[C@H](O)[C@H](O)CO [D-Fructose] | 0.1435 OD (750 nm)
O=C[C@@H](O)[C@@H](O)[C@H](O)CO [D-Lyxose] | 0.1508 OD (750 nm)
N[C@H](CO)C(=O)O [D-Serine] | 0.1114 OD (750 nm)
O=C(CO)[C@@H](O)[C@@H](O)[C@H](O)CO [D-Tagatose] | 0.138 OD (750 nm)
C[C@H](O)[C@@H](N)C(=O)O [D-Threonine] | 0.0923 OD (750 nm)
O=C(O)/C=C/C(=O)O [Fumaric Acid] | 0.018 OD (750 nm)
C[C@H](N)C(=O)O [L-Alanine] | 0.113 OD (750 nm)
N[C@@H](CCO)C(=O)O [L-Homoserine] | 0.0071 OD (750 nm)
CC(C)C[C@H](N)C(=O)O [L-Leucine] | 0.089 OD (750 nm)
CSCC[C@H](N)C(=O)O [L-Methionine] | 0.0818 OD (750 nm)
N[C@@H](Cc1ccccc1)C(=O)O [L-Phenylalanine] | 0.0714 OD (750 nm)
N[C@@H](CO)C(=O)O [L-Serine] | 0.0635 OD (750 nm)
C[C@@H](O)[C@H](N)C(=O)O [L-Threonine] | 0.0643 OD (750 nm)
CC(C)[C@H](N)C(=O)O [L-Valine] | 0.0917 OD (750 nm)
CC(=O)N[C@H]1C(O)O[C@H](CO)[C@@H](O)[C@@H]1O (stereo partly drawn) [N-Acetyl-D-Glucosamine] | 0.0955 OD (750 nm)
CC(=O)N[C@H]1[C@H]([C@H](O)[C@H](O)CO)OC(O)(C(=O)O)C[C@@H]1O (stereo partly shown) [N-Acetyl-Neuraminic acid] | 0.1163 OD (750 nm)
CC(=O)C(=O)O [Pyruvic Acid] | 0.093 OD (750 nm)
OCc1ccccc1O[C@@H]1O[C@H](CO)[C@@H](O)[C@H](O)[C@H]1O [Salicin] | 0.1291 OD (750 nm)
NCCc1ccccc1 [β-Phenylethylamine] | 0.0477 OD (750 nm)
Dextrin | 0.0478 OD (750 nm)

same assay, conditions: OD difference with vs without C. difficile, 72 h; nitrogen source (PM03/06/07/08)

Compound | C. difficile Mass
CC(O)C(N)=O (racemic) [D,L-Lactamide] | 0.04 OD (750 nm)
CCCCCCC(N)C(=O)O (racemic) [D,L-α-Amino-Caprylic acid] | 0.0484 OD (750 nm)
CC(N)=O [Acetamide] | 0.0458 OD (750 nm)
Nc1ncnc2nc[nH]c12 [Adenine] | 0.031 OD (750 nm)
Nc1ncnc2c1ncn2[C@@H]1O[C@H](CO)[C@@H](O)[C@H]1O [Adenosine] | 0.0472 OD (750 nm)
N=C(N)NCCCCN [Agmatine] | 0.043 OD (750 nm)
NC(=O)NC1NC(=O)NC1=O (stereo not shown) [Allantoin] | 0.0425 OD (750 nm)
NC(=O)NC(N)=O [Biuret] | 0.0394 OD (750 nm)
Nc1ccn([C@@H]2O[C@H](CO)[C@@H](O)[C@H]2O)c(=O)n1 [Cytidine] | 0.0456 OD (750 nm)
Nc1cc[nH]c(=O)n1 [Cytosine] | 0.0361 OD (750 nm)
C[C@@H](N)C(=O)O [D-Alanine] | 0.038 OD (750 nm)
NC(=O)C[C@@H](N)C(=O)O [D-Asparagine] | 0.0321 OD (750 nm)
N[C@H](CC(=O)O)C(=O)O [D-Aspartic acid] | 0.0109 OD (750 nm)
N[C@H]1C(O)O[C@H](CO)[C@H](O)[C@@H]1O (stereo partly drawn) [D-Galactosamine] | 0.0374 OD (750 nm)
N[C@H]1C(O)O[C@H](CO)[C@@H](O)[C@@H]1O (stereo partly drawn) [D-Glucosamine] | 0.0447 OD (750 nm)
NCCCC[C@@H](N)C(=O)O [D-Lysine] | 0.0489 OD (750 nm)
N[C@@H]1C(O)O[C@H](CO)[C@@H](O)[C@@H]1O (stereo partly drawn) [D-Mannosamine] | 0.0364 OD (750 nm)
N[C@H](CO)C(=O)O [D-Serine] | 0.0465 OD (750 nm)
CCN [Ethylamine] | 0.0401 OD (750 nm)
NCCN [Ethylenediamine] | 0.0369 OD (750 nm)
NC=O [Formamide] | 0.0418 OD (750 nm)
NC(=O)[C@@H](O)[C@@H](O)[C@H](O)[C@@H](O)C=O [Glucuronamide] | 0.0369 OD (750 nm)
Nc1nc2c(ncn2[C@@H]2O[C@H](CO)[C@@H](O)[C@H]2O)c(=O)[nH]1 [Guanosine] | 0.0092 OD (750 nm)
NCCc1c[nH]cn1 [Histamine] | 0.0424 OD (750 nm)
NO [Hydroxylamine] | 0.0228 OD (750 nm)
N=C(N)NCCC[C@H](N)C(=O)O [L-Arginine] | 0.046 OD (750 nm)

Compound | C. difficile Mass
NC(=O)NCCC[C@H](N)C(=O)O [L-Citrulline] | 0.0377 OD (750 nm)
N[C@@H](CS)C(=O)O [L-Cysteine] | 0.0394 OD (750 nm)
NC(=O)CC[C@H](N)C(=O)O [L-Glutamine] | 0.0339 OD (750 nm)
N[C@@H](Cc1c[nH]cn1)C(=O)O [L-Histidine] | 0.0361 OD (750 nm)
N[C@@H](CCO)C(=O)O [L-Homoserine] | 0.0293 OD (750 nm)
CC[C@H](C)[C@H](N)C(=O)O [L-Isoleucine] | 0.0563 OD (750 nm)
NCCCC[C@H](N)C(=O)O [L-Lysine] | 0.0436 OD (750 nm)
NCCC[C@H](N)C(=O)O [L-Ornithine] | 0.0369 OD (750 nm)
O=C(O)[C@@H]1CCCN1 [L-Proline] | 0.0394 OD (750 nm)
N[C@@H](Cc1c[nH]c2ccccc12)C(=O)O [L-Tryptophan] | 0.0299 OD (750 nm)
N[C@@H](Cc1ccc(O)cc1)C(=O)O [L-Tyrosine] | 0.1528 OD (750 nm)
CC(C)[C@H](N)C(=O)O [L-Valine] | 0.0431 OD (750 nm)
CN [Methylamine] | 0.0398 OD (750 nm)
CC(=O)N[C@H]1C(O)O[C@H](CO)[C@H](O)[C@@H]1O (stereo partly drawn) [N-Acetyl-D-Galactosamine] | 0.0355 OD (750 nm)
CCCCCN [N-Amylamine] | 0.0433 OD (750 nm)
NCCCCN [Putrescine] | 0.0339 OD (750 nm)
Cc1cn([C@H]2C[C@H](O)[C@@H](CO)O2)c(=O)[nH]c1=O [Thymidine] | 0.0384 OD (750 nm)
Cc1c[nH]c(=O)[nH]c1=O [Thymine] | 0.0338 OD (750 nm)
NCCc1ccc(O)cc1 [Tyramine] | 0.0442 OD (750 nm)
O=c1cc[nH]c(=O)[nH]1 [Uracil] | 0.0375 OD (750 nm)
O=c1[nH]c(=O)c2[nH]c(=O)[nH]c2[nH]1 [Uric acid] | 0.0556 OD (750 nm)
O=c1ccn([C@@H]2O[C@H](CO)[C@@H](O)[C@H]2O)c(=O)[nH]1 [Uridine] | 0.0373 OD (750 nm)
O=c1[nH]c(=O)c2[nH]cnc2[nH]1 [Xanthine] | 0.2978 OD (750 nm)
O=c1[nH]c(=O)c2ncn([C@@H]3O[C@H](CO)[C@@H](O)[C@H]3O)c2[nH]1 [Xanthosine] | 0.0516 OD (750 nm)
NCCc1ccccc1 [β-Phenylethylamine] | 0.0448 OD (750 nm)
NCCCC(=O)O [γ-Aminobutyric acid] | 0.0375 OD (750 nm)

same assay, conditions: OD difference with vs without C. difficile, 72 h; nutritional stimulant panel PM05

Compound | C. difficile Mass
Nc1ncnc2c1ncn2[C@@H]1O[C@H](CO)[C@@H](O)[C@H]1O [Adenosine] | 0.0414 OD (750 nm)

same assay, conditions: OD difference with vs without C. difficile, 72 h; phosphorus/sulfur source panel PM04

Compound | C. difficile Mass
NC(=O)CCCCC1CCSS1 (racemic) [D,L-Lipoamide] | 0.0265 OD (750 nm)
O=S(=O)(O)CCO [2-Hydroxyethane Sulfonic acid] | 0.0428 OD (750 nm)
Nc1ncnc2c1ncn2[C@@H]1O[C@H](COP(=O)(O)O)[C@@H](O)[C@H]1O [Adenosine 5′-Monophosphate] | 0.0495 OD (750 nm)
CCCCS(=O)(=O)O [Butane Sulfonic acid] | 0.0398 OD (750 nm)
Nc1ccn([C@@H]2O[C@@H]3COP(=O)(O)O[C@H]3[C@H]2O)c(=O)n1 [Cytidine 3′,5′-Cyclic Monophosphate] | 0.0106 OD (750 nm)
NCCS(=O)O [Hypotaurine] | 0.0438 OD (750 nm)
CS(=O)(=O)CC[C@H](N)C(=O)O [L-Methionine Sulfone] | 0.0446 OD (750 nm)
NCCS(=O)(=O)O [Taurine] | 0.0505 OD (750 nm)
C[C@H](CCC(=O)NCCS(=O)(=O)O)[C@H]1CC[C@H]2[C@@H]3[C@H](O)C[C@@H]4C[C@H](O)CC[C@]4(C)[C@H]3C[C@H](O)[C@]12C [Taurocholic acid] | 0.0536 OD (750 nm)
O=S1(=O)CCCC1 [Tetramethylene Sulfone] | 0.0442 OD (750 nm)
Nc1ccc(S(=O)(=O)O)cc1 [p-Aminobenzene Sulfonic acid] | 0.0485 OD (750 nm)
